Results: PMC3064998, “In Vitro Selection of Cathepsin E-Activity-Enhancing Peptide Aptamers at Neutral pH” (International Journal of Peptides, 2011)
Ends that are not written are not given here.

T1: cathepsin E (Rattus norvegicus, UniProt P16228)
T1 construct: The enzyme CatE was prepared from rat spleen according to the method previously described; from tissue; host or cells: rat spleen
T1 sequence (P16228 59-398): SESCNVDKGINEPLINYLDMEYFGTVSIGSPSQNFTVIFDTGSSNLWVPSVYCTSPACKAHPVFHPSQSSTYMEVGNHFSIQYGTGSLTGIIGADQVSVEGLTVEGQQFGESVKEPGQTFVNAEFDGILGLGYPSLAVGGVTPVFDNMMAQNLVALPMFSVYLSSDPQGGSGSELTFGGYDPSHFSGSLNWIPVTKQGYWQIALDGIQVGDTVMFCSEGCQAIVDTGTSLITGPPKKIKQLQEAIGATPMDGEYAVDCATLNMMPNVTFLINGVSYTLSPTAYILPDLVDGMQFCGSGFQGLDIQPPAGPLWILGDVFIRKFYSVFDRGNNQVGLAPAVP

T2: P1 (p2006) peptide aptamer
T2 chain: VGCDFMYV

T3: P3 (p3006) peptide aptamer
T3 chain: IEGRVGCDFMYVG

T4: S3 (p4038) peptide aptamer
T4 chain: IGCEERSFPNIIIIIG


Columns and labels:
cathepsin E (CatE) = assay: CatE-activity-enhancement assay at neutral pH (fluorogenic substrate); assay type: biochemical, rat; settings: pH 7.4; for Activities (%) Adp (CatE activity with in vitro translated peptide): CatE 20 nM : peptide 1:1 (20 nM), three independent experiments; for Activities (%) Adp (CatE activity with in vitro translated peptide) / Activities (%) Asy (CatE activity with chemically synthesized peptide): 50 mM Tris-HCl, 100 mM NaCl, preincubation 25°C 10 min, substrate 5 μM, 37°C 1 h, fluorescence ex 340/em 440 nm, 100% = CatE + substrate without peptide; for Activities (%) Asy (CatE activity with chemically synthesized peptide): CatE 20 nM : peptide 1:1
Description: (§1) A fluorogenic substrate susceptible at neutral pH to the protease cathepsin E, which usually functions at acidic pH, was designed as per reference: [Nma-Gly-Gly-Arg-Arg-Ser-Gly-Thy-Cys-Gly(Dnp)-D-Arg-NH2]. The peptide was custom-synthesized at Peptide Institute (Osaka, Japan) and confirmed to be an effective substrate at pH 7.4. The peptide was dissolved in dimethyl sulfoxide (DMSO) at 10 mM and stored in a deep freezer until use. The enzyme CatE was prepared from rat spleen according to the method previously described and immobilized on N-hydroxysuccinimide-activated sepharose beads (GE Healthcare, USA) using the amine-coupling method and stored in, 100 mM phosphate buffer (pH 7.4) at 4°C.
CatE-activation by peptide aptamers was assayed by the method described previously but with a few modifications. Briefly, the CatE (20 nM) solution preincubated with a peptide aptamer in a 1 : 1 molar ratio in the selection buffer (50 mM Tris-HCl, 100 mM NaCl, pH 7.4) at 25°C for 10 min. was combined with the fluorogenic substrate (5 μM) and the enzyme reaction performed at 37°C for 1 h. The reaction product was measured by fluorescence intensity at 440 nm with an excitation wavelength of 340 nm using a fluorescence microplate reader, Infinite 200 (Tecan, Japan). The percentage of activation (A) was calculated by fitting the data to the following equation:
(1) A=100×Sf−Bf/Cf−Bf [% activation], where Sf represents the fluorescence intensity of the positive reaction consisting of the enzyme (CatE), the fluorogenic substrate, and a possible peptide activator; C f is that of the control reaction mixture consisting of CatE and fluorogenic substrate (without peptide activator); B f is the background fluorescence of the negative reaction mixture consisting of only the fluorogenic substrate.

cathepsin E = target: T1, cathepsin E; assay: SPR (Biacore 2000) measurement of KD; settings: CatE immobilized on CM5 chip, running buffer 50 mM Tris-HCl, 100 mM NaCl, pH 7.4, four peptide concentrations, 1:1 binding with mass transfer model, unit M printed in b35 only, read-out: KD (dissociation constant)
Description: as §1
An SPR instrument, Biacore 2000 (GE Healthcare, UK), was used for measuring KD for the binding of cathepsin E and selected peptides. Cathepsin E was immobilized onto Biacore sensor chip CM5 (GE Healthcare, UK) by the amine-coupling method using an Amine Coupling Kit (GE Healthcare, UK). Immobilization of cathepsin E was performed using running buffer (50 mM sodium acetate, 100 mM NaCl, pH 4.5). To determine dissociation constants, four different concentrations of selected peptides were used for the interaction. […] The binding data were analyzed with the 1 : 1 binding with mass transfer model in the BIAevaluation software version 4 : 1 (Biacore).

[1] = target: T2, P1 (p2006) peptide aptamer; assay: SPR
[2] = target: T3, P3 (p3006) peptide aptamer; assay: SPR
[3] = target: T4, S3 (p4038) peptide aptamer; assay: SPR

Kd (cathepsin E)	Molecule	Activities (%) Adp (CatE activity with in vitro translated peptide) (cathepsin E (CatE))	Activities (%) Asy (CatE activity with chemically synthesized peptide) (cathepsin E (CatE))	also measured
	SPIISHIVGCDPPSCG [S1]	160 ± 20%		
334 nM	IEGRVGCDFMYVG [P3]			
	KGPPPCPC [P2]	128 ± 20%	110 ± 4%	enhancement of CatE-activity (increase over control) (cathepsin E (CatE); in vitro translation synthesized peptides): 10 to 30%
	PGIKPPPCIIIIG [S2]	180 ± 10%	144.5 ± 11%	
389 nM	IGCEERSFPNIIIIIG [S3]			
	Cathepsin E (protein) SESCNVDKGINEPLINYLDMEYFGTVSIGSPSQNFTVIFDTGSSNLWVPSVYCTSPACKAHPVFHPSQSSTYMEVGNHFSIQYGTGSLTGIIGADQVSVEGLTVEGQQFGESVKEPGQTFVNAEFDGILGLGYPSLAVGGVTPVFDNMMAQNLVALPMFSVYLSSDPQGGSGSELTFGGYDPSHFSGSLNWIPVTKQGYWQIALDGIQVGDTVMFCSEGCQAIVDTGTSLITGPPKKIKQLQEAIGATPMDGEYAVDCATLNMMPNVTFLINGVSYTLSPTAYILPDLVDGMQFCGSGFQGLDIQPPAGPLWILGDVFIRKFYSVFDRGNNQVGLAPAVP			Kd [1]: ~10000 nM; Kd [2]: 334 nM; Kd [3]: 389 nM
